Among the test systems are SF-295 CNS; HCT-116 colon; CAKI-1 renal; HCC-2998 colon; LOX IMVI melanoma; MOLT-4 leukemia; SK-MEL-5 melanoma; NCI-H226 lung; SNB-75 CNS; MDA-MB-435; NCI/ADR-RES ovarian.
Common to all, as to experiment: DTP human tumour cell line panel, 48 h

“And” between values parts separate entries of the source, which are not always exact repeats. Equal values may be shown once.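 Where inhibition never reached the appropriate level, the endpoint shown equals the highest concentration tested. Otherwise, values were interpolated linearly from a five-concentration, 48-hour dose response in 96-well plates. GI50 marks 50% less growth. The concentration for full growth arrest is given as TGI.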

Turning to `CCN(CC)CCC(=O)O[C@H]1CC[C@H](CC(C)[C@H]2CC(=O)C(C)C=C(C)[C@H](OC(=O)CCN(CC)CC)C(OC)C(=O)[C@@H](C)CC(C)/C=C/C=C/C=C(C)C(OC)CC3CC[C@H](C)[C@](O)(O3)C(=O)C(=O)N3CCCCC3C(=O)O2)CC1OC` (stereo not given in full), the GI50 is 1.6 nM in the test on SF-295 CNS; 1240 nM in the test with HCT-116 colon; 1030 nM in the test with HCC-2998 colon; 7.95 nM with LOX IMVI melanoma; 25.5 nM with MOLT-4 leukemia; 40.1 nM with SK-MEL-5 melanoma. The GI50 was 1210 nM with NCI-H226 lung, 100 nM in the test with SNB-75 CNS and 1140 nM in the test with MDA-MB-435. Besides, the TGI in the test with SF-295 CNS is 1.46 µM and 1.98 µM; with HCT-116 colon, 2.57 µM and 2.54 µM; in the test on CAKI-1 renal it was 3.06 µM; in the test on HCC-2998 colon it was 2.29 µM and 2.04 µM; in the test with LOX IMVI melanoma, 1.94 µM and 1.65 µM; in the test with MOLT-4 leukemia, 5.39 µM and 1.32 µM. Besides, the TGI was 1.85 µM and 2.16 µM in the test with SK-MEL-5 melanoma; 3.68 µM and 3.34 µM with NCI-H226 lung; 1.77 µM and 0.55 µM with SNB-75 CNS; 2.35 µM and 2.04 µM in the test on MDA-MB-435; 8.13 µM and 6.58 µM in the test on NCI/ADR-RES ovarian.
For the compound `COc1cccc(C(=O)N[C@@H]2[C@H](O)[C@@H](CO)O[C@H]2n2cnc3c(N)ncnc32)c1`, the TGI with SF-295 CNS, with HCT-116 colon, with CAKI-1 renal, with HCC-2998 colon, with LOX IMVI melanoma and in the test on MOLT-4 leukemia was > 100 µM in each case. Besides, the TGI in the test on SK-MEL-5 melanoma, in the test on NCI-H226 lung, with SNB-75 CNS, in the test on MDA-MB-435 and in the test on NCI/ADR-RES ovarian was > 100 µM each time.
Regarding `O=C(Nc1ccc(S(=O)(=O)Nc2ncccn2)cc1)c1c2ccccc2nc2ccccc12`, the TGI with SF-295 CNS, with HCT-116 colon, in the test with CAKI-1 renal, in the test on HCC-2998 colon, in the test on LOX IMVI melanoma and with MOLT-4 leukemia was > 100 µM throughout. Moreover, the TGI in the test on SK-MEL-5 melanoma, in the test with NCI-H226 lung, with SNB-75 CNS, with MDA-MB-435 and with NCI/ADR-RES ovarian was > 100 µM throughout.
For the compound `CCCCCCC(=O)OC[n+]1cccc(-c2c(COC(=O)NC(C)C)c(COC(=O)NC(C)C)c3n2CCC3)c1`, the concentration for total growth inhibition (TGI) in the test on SF-295 CNS was > 100 µM; in the test on HCT-116 colon, > 87.2 µM; with CAKI-1 renal, 47.8 µM; with HCC-2998 colon, > 100 µM; in the test with LOX IMVI melanoma, 69 µM; in the test on MOLT-4 leukemia, > 80.7 µM. For the same compound, the total growth inhibition concentration (TGI) in the test with SK-MEL-5 melanoma is > 88.9 µM; in the test with NCI-H226 lung it was > 100 µM; in the test on SNB-75 CNS it was > 100 µM; in the test on MDA-MB-435, > 100 µM; in the test on NCI/ADR-RES ovarian, > 100 µM.
As for `CC(Cc1ccc2c(c1)OCO2)N(C)C(=O)C1=CCN(C)CC1` (stereo not given), the TGI in the test on SF-295 CNS, in the test on HCT-116 colon, in the test with CAKI-1 renal, in the test on HCC-2998 colon, in the test with LOX IMVI melanoma and with MOLT-4 leukemia was > 100 µM in each case. Also, the TGI with SK-MEL-5 melanoma, with NCI-H226 lung, in the test with SNB-75 CNS, with MDA-MB-435 and in the test on NCI/ADR-RES ovarian was > 100 µM each time.
For the compound `Cc1cc(-c2ccc(C(=O)C(c3ccccc3)(c3ccccc3)c3ccccc3)[nH]2)on1`, the concentration for total growth inhibition (TGI) in the test with SF-295 CNS worked out at 97.7 µM; in the test on HCT-116 colon, 27.9 µM; in the test on CAKI-1 renal it was 69.5 µM; with HCC-2998 colon, 25.6 µM; with LOX IMVI melanoma, 53.3 µM; with MOLT-4 leukemia, 84.9 µM. Further, the TGI in the test with SK-MEL-5 melanoma is 29.4 µM; in the test on NCI-H226 lung, 42.5 µM; with SNB-75 CNS it was > 100 µM; with MDA-MB-435, 67.7 µM; in the test with NCI/ADR-RES ovarian, 36.8 µM.
For `C=CC[C@H]1[C@H](O[Si](C)(C)C(C)(C)C)C=CC(=O)[C@@H]1CC(=O)OCC`, the TGI in the test with SF-295 CNS worked out at 27.8 µM; with HCT-116 colon, 23.5 µM; in the test with CAKI-1 renal, 25.1 µM; in the test on HCC-2998 colon, 25.5 µM; with LOX IMVI melanoma, 32 µM; with MOLT-4 leukemia, 48 µM. For the same compound, the total growth inhibition concentration (TGI) came to 22.9 µM in the test with SK-MEL-5 melanoma; 29.2 µM with NCI-H226 lung; 30.1 µM in the test on SNB-75 CNS; 26.4 µM in the test on MDA-MB-435; 24.4 µM in the test on NCI/ADR-RES ovarian.
In the case of `COC(=O)CCC(C)[C@H]1CCC2C3C(C[C@H](OC(C)=O)[C@@]21C)[C@@]1(C)CCC2(C[C@H]1C[C@H]3OC(C)=O)OOC1(CCCCC1)OO2` (stereo not given in full), the TGI in the test with SF-295 CNS was 80.4 µM; in the test on HCT-116 colon, > 100 µM; in the test with CAKI-1 renal it was > 100 µM; in the test on HCC-2998 colon, > 100 µM; with LOX IMVI melanoma, > 100 µM; in the test on MOLT-4 leukemia, > 100 µM. In addition, the TGI with SK-MEL-5 melanoma was > 100 µM; in the test with NCI-H226 lung, > 100 µM; in the test on SNB-75 CNS it was 79.3 µM; in the test on MDA-MB-435, > 100 µM; in the test with NCI/ADR-RES ovarian, > 100 µM.
Regarding `CN1CCCC(C(=O)OCC(=O)C2(O)CCC3C4CCC5=CC(=O)CCC5(C)C4C(O)CC32C)C1` (stereo not given), the TGI is 46.6 µM with SF-295 CNS; 23.5 µM in the test with HCT-116 colon; > 65.8 µM in the test with CAKI-1 renal; 22.1 µM with HCC-2998 colon; 30.6 µM in the test with LOX IMVI melanoma; 48.4 µM in the test on MOLT-4 leukemia. Also, the TGI in the test on SK-MEL-5 melanoma came to 41.3 µM; in the test on NCI-H226 lung, 33.9 µM; with SNB-75 CNS, 17.5 µM; in the test with MDA-MB-435, 33.4 µM; in the test on NCI/ADR-RES ovarian it was 55.3 µM.
`CC(=O)/C(=C(/Br)I)c1ccccc1`: the TGI was 29 µM in the test with SF-295 CNS; 15.2 µM with HCT-116 colon; 6.83 µM in the test on CAKI-1 renal; 12.3 µM in the test on HCC-2998 colon; 22.5 µM with LOX IMVI melanoma; 20.5 µM with MOLT-4 leukemia. The TGI came out at 30.8 µM with SK-MEL-5 melanoma; 27.2 µM in the test with NCI-H226 lung; 39.6 µM in the test on SNB-75 CNS; 11.9 µM in the test on MDA-MB-435; 45 µM with NCI/ADR-RES ovarian.
As for `CC(C)OP(=O)(OC(C)C)C(Nc1cccc(C(F)(F)F)c1)c1ccccc1` (stereo not given), the TGI in the test with SF-295 CNS was > 100 µM; with HCT-116 colon, > 100 µM; with CAKI-1 renal it was > 100 µM; with HCC-2998 colon, > 100 µM; in the test with LOX IMVI melanoma, > 100 µM; in the test on MOLT-4 leukemia it was 65.5 µM. Also, the TGI is 76.5 µM in the test on SK-MEL-5 melanoma; > 100 µM in the test with NCI-H226 lung; > 100 µM with SNB-75 CNS; > 100 µM in the test with MDA-MB-435; > 100 µM in the test on NCI/ADR-RES ovarian.

The record behind these values is PubChem BioAssay (NCI).
